Tests used:
[1] = biological target: T1, AR (AR-full length) in LNCaP cells (Homo sapiens, UniProt P10275, T878A); assay: LNCaP Androgen Receptor Imaging Assay (immunofluorescence of endogenous nuclear AR); format: cell-based; details: 24 h incubation; for DC50: concentration giving 50% of maximum degradation of AR per curve fit, single experiment or average of two or more; for Dmax: LNCaP, maximum degradation observed, normalized as % of positive control (prior art AR PROTAC at 3 μM)
T1 construct: the prostate cancer cell line LNCaP (expressing AR-full length); endogenous in cells; host or cells: LNCaP
T1 sequence (P10275 whole entry T878A): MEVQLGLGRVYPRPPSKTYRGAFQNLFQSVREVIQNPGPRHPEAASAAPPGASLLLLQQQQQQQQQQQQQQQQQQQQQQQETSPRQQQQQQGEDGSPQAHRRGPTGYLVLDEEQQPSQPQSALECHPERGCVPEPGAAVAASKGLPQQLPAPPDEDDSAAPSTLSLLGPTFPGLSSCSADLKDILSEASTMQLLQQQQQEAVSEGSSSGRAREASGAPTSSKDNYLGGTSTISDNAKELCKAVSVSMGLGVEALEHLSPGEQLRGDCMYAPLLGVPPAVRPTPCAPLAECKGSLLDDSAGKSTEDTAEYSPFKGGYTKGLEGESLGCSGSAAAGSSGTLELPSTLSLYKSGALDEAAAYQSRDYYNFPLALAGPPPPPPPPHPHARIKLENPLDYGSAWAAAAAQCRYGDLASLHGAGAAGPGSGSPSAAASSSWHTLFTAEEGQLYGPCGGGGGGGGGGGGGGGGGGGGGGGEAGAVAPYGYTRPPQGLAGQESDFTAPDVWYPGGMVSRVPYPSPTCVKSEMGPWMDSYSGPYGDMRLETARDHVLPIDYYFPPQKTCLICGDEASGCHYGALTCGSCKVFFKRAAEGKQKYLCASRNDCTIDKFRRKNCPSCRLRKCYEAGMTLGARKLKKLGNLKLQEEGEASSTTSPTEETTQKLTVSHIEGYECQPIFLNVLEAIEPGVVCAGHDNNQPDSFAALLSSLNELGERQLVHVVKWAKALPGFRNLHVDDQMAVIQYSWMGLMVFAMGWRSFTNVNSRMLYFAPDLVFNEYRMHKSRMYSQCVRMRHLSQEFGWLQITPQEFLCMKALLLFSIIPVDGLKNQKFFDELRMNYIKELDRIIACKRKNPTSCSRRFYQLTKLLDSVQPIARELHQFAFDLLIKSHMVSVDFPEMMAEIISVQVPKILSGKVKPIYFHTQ
T1 sequence (Q96SW2 whole entry partner): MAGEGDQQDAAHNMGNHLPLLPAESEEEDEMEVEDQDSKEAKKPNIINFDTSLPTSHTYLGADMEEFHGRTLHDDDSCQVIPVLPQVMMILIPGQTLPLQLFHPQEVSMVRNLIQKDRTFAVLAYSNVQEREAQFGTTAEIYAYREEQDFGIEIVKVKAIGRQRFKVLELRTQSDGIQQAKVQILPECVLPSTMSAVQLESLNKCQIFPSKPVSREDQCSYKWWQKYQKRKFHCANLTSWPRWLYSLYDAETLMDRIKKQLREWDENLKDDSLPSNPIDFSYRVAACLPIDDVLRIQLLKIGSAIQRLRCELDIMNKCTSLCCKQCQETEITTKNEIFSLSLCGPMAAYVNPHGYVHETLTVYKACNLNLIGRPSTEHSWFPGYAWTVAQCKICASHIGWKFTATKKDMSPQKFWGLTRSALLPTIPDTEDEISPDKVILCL
Outline: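 LNCaP cells (12,000/well) received a 12-point compound dose series (0.3% DMSO) for 24 h at 37° C., then were PFA-fixed and stained for AR (AR441) and nuclei (DRAQ5). Nuclear AR was quantified by imaging, normalized to a 3 μM AR PROTAC control; DC50 and Dmax came from Hill/bell curve fits.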

[2] = biological target: T2, AR (L702H) in LNCaP cells (Homo sapiens, UniProt P10275, L702H/T878A); assay: LNCaP Androgen Receptor L702H Imaging Assay (LNCaP cells engineered by CRISPR/Cas9); format: cell-based; details: LNCaP cells with AR L702H mutation, 24 h incubation; for DC50: concentration giving 50% of maximum degradation of AR (L702H) per curve fit; for Dmax: LNCaP, maximum degradation observed, normalized as % of positive control
T2 construct: engineered to introduce the mutation L702H into the AR gene using CRISPR/Cas9; endogenous in cells; host or cells: LNCaP cells edited by CRISPR/Cas9 at the AR gene
T2 sequence (P10275 whole entry L702H/T878A): as the sequence (P10275 whole entry T878A) above, with L702H counted along it
T2 sequence (Q96SW2 whole entry partner): as the sequence (Q96SW2 whole entry partner) above
Outline: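 CRISPR-engineered LNCaP cells carrying AR L702H were treated 24 h at 37 °C with a 12-point compound dose response (0.3% DMSO), then fixed and immunostained for AR with DRAQ5 nuclear counterstain. Nuclear AR was quantified by imaging, normalized to positive control; DC50 and Dmax came from Hill or bell-shaped fits.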

Structure (SMILES)	DC50 [1] [nM]	Dmax [1] [%]	DC50 [2] [nM]	Dmax [2] [%]
N#Cc1c[nH]c2c(N3CCC(c4ccc(N5CCN(CC6CCN(c7ccc8c(c7)CN(C7CCC(=O)NC7=O)C8=O)CC6)CC5)cc4)CC3)ccc(F)c12 (centres unmarked) [Example 22]	14	80	23	81
N#Cc1c[nH]c2c(N3CCC[C@@H](c4ccc(N5CCC(CN6CCC(n7ccc8c(N9CCC(=O)NC9=O)cccc87)CC6)CC5)cc4)C3)ccc(F)c12 [Example 23, 7-[(3S)-3-{4-[4-({4-[4-(2,4-Dioxo-1,3-diazinan-1-yl)-1H-indol-1-yl]piperidin-1-yl}methyl)piperidin-1-yl]phenyl}piperidin-1-yl]-4-fluoro-1H-indole-3-carbonitrile]	12	100	57	94
N#Cc1c[nH]c2c(N3CCC[C@@H](c4ccc(N5CCC(CN6CCN(c7ccc8c(c7)CN(C7CCC(=O)NC7=O)C8=O)CC6)CC5)cc4)C3)ccc(F)c12 (stereo partly drawn) [Example 24, 7-[(3S)-3-{4-[4-({4-[2-(2,6-dioxopiperidin-3-yl)-1-oxo-2,3-dihydro-1H-isoindol-5-yl]piperazin-1-yl}methyl)piperidin-1-yl]phenyl}piperidin-1-yl]-4-fluoro-1H-indole-3-carbonitrile]	6	100	18	83
N#Cc1n[nH]c2c(N3CCC[C@H](c4ccc(N5CCC(CN6CCC(n7ccc8c(N9CCC(=O)NC9=O)cccc87)CC6)CC5)cc4)C3)ccc(Cl)c12 [Example 25, 4-Chloro-7-[(3R)-3-{4-[4-({4-[4-(2,4-dioxo-1,3-diazinan-1-yl)-1H-indol-1-yl]piperidin-1-yl}methyl)piperidin-1-yl]phenyl}piperidin-1-yl]-1H-indazole-3-carbonitrile]	6	92	4	104
N#Cc1c[nH]c2c(N3CCC[C@H](c4ccc(N5CCC(CN6CCC(n7ccc8c(N9CCC(=O)NC9=O)cccc87)CC6)CC5)cc4)C3)ccc(Cl)c12 [Example 26, 4-Chloro-7-[(3R)-3-{4-[4-({4-[4-(2,4-dioxo-1,3-diazinan-1-yl)-1H-indol-1-yl]piperidin-1-yl}methyl)piperidin-1-yl]phenyl}piperidin-1-yl]-1H-indole-3-carbonitrile]	9	92	7	106
COc1cc(N2CCN(CCCCOc3ccc(C4CCN(c5ccc(C)c6c(C#N)c[nH]c56)CC4)cc3)CC2)cc2c1C(=O)N(C1CCC(=O)NC1=O)C2 (centres unmarked) [Example 27, 7-{4-[4-(4-{4-[2-(2,6-Dioxopiperidin-3-yl)-7-methoxy-1-oxo-2,3-dihydro-1H-isoindol-5-yl]piperazin-1-yl}butoxy)phenyl]piperidin-1-yl}-4-methyl-1H-indole-3-carbonitrile]	14	99	27	75
Cc1ccc(N2CCC(c3ccc(OCCCCN4CCN(c5ccc6c(c5)CN(C5CCC(=O)NC5=O)C6=O)CC4)cc3)CC2)c2[nH]cc(C#N)c12 (centres unmarked) [Example 28, 7-{4-[4-(4-{4-[2-(2,6-dioxopiperidin-3-yl)-1-oxo-2,3-dihydro-1H-isoindol-5-yl]piperazin-1-yl}butoxy)phenyl]piperidin-1-yl}-4-methyl-1H-indole-3-carbonitrile]	5	96	23	83
Cc1ccc(N2CCC(c3ccc(OCCCCN4CCC(n5ccc6c(N7CCC(=O)NC7=O)cccc65)CC4)cc3)CC2)c2[nH]cc(C#N)c12 [Example 29, 7-{4-[4-(4-{4-[4-(2,4-Dioxo-1,3-diazinan-1-yl)-1H-indol-1-yl]piperidin-1-yl}butoxy)phenyl]piperidin-1-yl}-4-methyl-1H-indole-3-carbonitrile]	79	94	60	74

Source: US20260274832A1, “COMPOUNDS AND THEIR USE IN TREATING CANCER” (ASTRAZENECA AB, priority 2023, published 2026)
